From PMC10648349, “Aromatic Diboronic Acids as Effective KPC/AmpC Inhibitors” (Molecules, 2023)
In brackets after ≈: the same amount, converted by molar mass. Where two headings read alike, the source gives them in different places.

Legend:
[1] = test system: P. aeruginosa MUW 700 cAmpC-positive; assay: combination disc test CDT-AmpC; type: cell-based; conditions: Pseudomonas aeruginosa, read-out: Diameter of inhibition zone, CAZ-30 disc with agent; for zone of inhibition at 300 µg/disc: agent 0.3 mg per disc
C. tropicalis IBA 171 = assay: antifungal activity (disc-diffusion, MIC, MFC); type: cell-based; conditions: Candida tropicalis, IBA171; for MIC: fluconazole by Etest
Procedure, shortened: (§1)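 Disc-diffusion, MIC, MBC (bacteria) and MFC (yeasts) were determined per EUCAST and CLSI recommendations. Diboronic acids were dissolved in DMSO and applied at 0.4 mg per disc for diffusion. References: nitrofurantoin (Gram-negative rods), linezolid (Gram-positive), fluconazole (fungi).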

C. tropicalis ATCC 750 = assay: antifungal activity (disc-diffusion, MIC, MFC); type: cell-based; conditions: Candida tropicalis, ATCC750; for zone of inhibition at 0.4 mg/disc: 0.4 mg per disc, 9 mm disc (fluconazole 0.025 mg, 6 mm disc), - no zone, read-out: Diameter of inhibition zone; for MIC: fluconazole by Etest
Procedure, shortened: as §1

C. albicans ATCC 90028 = assay: antifungal activity (disc-diffusion, MIC, MFC); type: cell-based; conditions: Candida albicans, ATCC90028; for zone of inhibition at 0.4 mg/disc: 0.4 mg per disc, 9 mm disc (fluconazole 0.025 mg, 6 mm disc), - no zone, read-out: Diameter of inhibition zone; for MIC: fluconazole by Etest
Procedure, shortened: as §1

S. cerevisiae ATCC 9763 = assay: antifungal activity (disc-diffusion, MIC, MFC); type: cell-based; conditions: Saccharomyces cerevisiae, ATCC9763; for zone of inhibition at 0.4 mg/disc: 0.4 mg per disc, 9 mm disc (fluconazole 0.025 mg, 6 mm disc), - no zone, read-out: Diameter of inhibition zone; for MIC: fluconazole by Etest
Procedure, shortened: as §1

[2] = test system: K. pneumoniae ATCC BAA 1705 KPC-2-positive; assay: combination disc test CDT-KPC; type: cell-based; conditions: Klebsiella pneumoniae, BAA1705, read-out: Diameter of inhibition zone, MEM-10 disc with agent; for zone of inhibition at 300 µg/disc: agent 0.3 mg per disc
[3] = test system: E. coli 77 CMY-2-positive; assay: combination disc test CDT-AmpC; type: cell-based; conditions: Escherichia coli, read-out: Diameter of inhibition zone, CAZ-30 disc with agent; for zone of inhibition at 300 µg/disc: agent 0.3 mg per disc
[4] = test system: C. guilliermondii IBA 155; assay: antifungal activity (disc-diffusion, MIC, MFC); type: cell-based, Candida guilliermondii; conditions: Meyerozyma guilliermondii, IBA155; for zone of inhibition at 0.4 mg/disc: 0.4 mg per disc, 9 mm disc (fluconazole 0.025 mg, 6 mm disc), - no zone, read-out: Diameter of inhibition zone; for MIC: fluconazole by Etest
Procedure, shortened: as §1

[5] = test system: K. pneumoniae ATCC 700603 ESBL-positive; assay: combination disc test CDT-ESBL; type: cell-based; conditions: Klebsiella pneumoniae, ATCC700603, read-out: Diameter of inhibition zone, CAZ-30 disc with agent; for zone of inhibition at 300 µg/disc: agent 0.3 mg per disc
[6] = test system: S. epidermidis ATCC 12228; assay: direct antimicrobial activity (disc-diffusion, MIC, MBC); type: cell-based; conditions: Staphylococcus epidermidis, ATCC12228; for zone of inhibition at 0.4 mg/disc: 0.4 mg per disc, 9 mm disc (linezolid 0.03 mg, 6 mm disc), - no zone, read-out: Diameter of inhibition zone
Procedure, shortened: as §1

E. faecalis ATCC 29212 = assay: as above; type: cell-based; conditions: Enterococcus faecalis, ATCC29212
Procedure, shortened: as §1

S. aureus ATCC 6538P = assay: as above; type: cell-based; conditions: Staphylococcus aureus, ATCC6538P
Procedure, shortened: as §1

E. faecium ATCC 6057 = assay: as above; type: cell-based; conditions: Enterococcus faecium, ATCC6057
Procedure, shortened: as §1

[7] = test system: S. aureus ATCC 43300 MRSA; assay: as above; type: cell-based; conditions: Staphylococcus aureus
Procedure, shortened: as §1

[8] = MTT-based viability assay; type: cell-based; conditions: human
Procedure, shortened: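 Percent viable cells relative to control, measured in triplicate by MTT read-out at 570 nm. Cells: MRC-5 human fibroblasts cultured at 37 °C, 5% CO2 in MEME plus 10% FBS.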

B. subtilis ATCC 6633 = assay: direct antimicrobial activity (disc-diffusion); type: cell-based; conditions: Bacillus subtilis, ATCC6633; 0.4 mg per disc, 9 mm disc (linezolid 0.03 mg, 6 mm disc); - no zone; read-out: Diameter of inhibition zone
Procedure, shortened: as §1

[9] = test system: C. parapsilosis ATCC 22019; assay: antifungal activity (disc-diffusion, MIC, MFC); type: cell-based, Candida parapsilosis; conditions: Lodderomyces parapsilosis, ATCC22019; for zone of inhibition at 0.4 mg/disc: 0.4 mg per disc, 9 mm disc (fluconazole 0.025 mg, 6 mm disc), - no zone, read-out: Diameter of inhibition zone; for MIC: fluconazole by Etest
Procedure, shortened: as §1

[10] = test system: E. coli 77 CMY-2-positive; assay: checkerboard microdilution, antibiotic plus tested agent; type: cell-based, Escherichia coli
Procedure, shortened: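 Read-out is the antibiotic MIC with agent present, plus FICI = combined/alone MIC ratios summed for both partners. Meropenem pairs served for carbapenemase strains and ceftazidime pairs for the AmpC strain. Agent or PBA was tested at 4–16 mg/L.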

[11] = 0.4 mg per disc, 9 mm disc (linezolid 0.03 mg, 6 mm disc), - no zone, read-out: Diameter of inhibition zone
[12] = MRC-5 human fibroblasts, 12.5 mg/L, 72 h, read-out: Viability of MRC-5 cells (% of viable cells ± SD)
[13] = MRC-5 human fibroblasts, 25 mg/L, 72 h, read-out: Viability of MRC-5 cells (% of viable cells ± SD)
[14] = MRC-5 human fibroblasts, 50 mg/L, 72 h, read-out: Viability of MRC-5 cells (% of viable cells ± SD)

Row | Structure (SMILES) | zone of inhibition at 300 µg/disc [1] | MIC (C. tropicalis IBA 171) | zone of inhibition at 0.4 mg/disc (C. tropicalis ATCC 750) | MIC (C. tropicalis ATCC 750) | zone of inhibition at 0.4 mg/disc (C. albicans ATCC 90028) | MIC (C. albicans ATCC 90028) | zone of inhibition at 0.4 mg/disc (S. cerevisiae ATCC 9763) | MIC (S. cerevisiae ATCC 9763) | zone of inhibition at 300 µg/disc [2] | zone of inhibition at 300 µg/disc [3] | zone of inhibition at 0.4 mg/disc [4] | MIC [4] | zone of inhibition at 300 µg/disc [5] | MIC [6] | zone of inhibition at 0.4 mg/disc [6] | MIC (E. faecalis ATCC 29212) | MIC (S. aureus ATCC 6538P) | MIC (E. faecium ATCC 6057) | MIC [7] | MIC [9] | other results
1 | OB(O)c1ccccc1S [7c, 2-mercaptophenylboronic acid] | 11 mm | 12.5 µg/mL (≈ 81.2 µM) | 20 mm | 50 µg/mL (≈ 325 µM) | 33 mm | 50 µg/mL (≈ 325 µM) | 34 mm | 12.5 µg/mL (≈ 81.2 µM) | 13 mm | 16 mm | 40 mm | 25 µg/mL (≈ 162 µM) | 15 mm | 12.5 µg/mL (≈ 81.2 µM) | 30 mm | 25 µg/mL (≈ 162 µM) | 12.5 µg/mL (≈ 81.2 µM) | 12.5 µg/mL (≈ 81.2 µM) | 25 µg/mL (≈ 162 µM) | 50 µg/mL (≈ 325 µM) | MFC (C. tropicalis IBA 171): 100 µg/mL (≈ 649 µM); MFC (C. tropicalis ATCC 750): 200 µg/mL (≈ 1300 µM); MFC (C. albicans ATCC 90028): 200 µg/mL (≈ 1300 µM); MFC (S. cerevisiae ATCC 9763): 25 µg/mL (≈ 162 µM); MFC [4]: 200 µg/mL (≈ 1300 µM); zone of inhibition at 0.4 mg/disc (E. faecalis ATCC 29212; [11]): 23 mm; zone of inhibition at 0.4 mg/disc (S. aureus ATCC 6538P; [11]): 23 mm; zone of inhibition at 0.4 mg/disc (E. faecium ATCC 6057; [11]): 25 mm; zone of inhibition at 0.4 mg/disc [7, 11]: 22 mm; viability at 72 h, 12.5 mg/L [8, 12]: 56.4 ± 3%; viability at 72 h, 25 mg/L [8, 13]: 6.6 ± 5.1%; viability at 72 h, 50 mg/L [8, 14]: 0%; viability at 72 h ([8]; MRC-5 human fibroblasts, 12.5, 25 and 50 mg/L, 72 h): 0 to 56.4%; zone of inhibition at 0.4 mg/disc (B. subtilis ATCC 6633): 26 mm; zone of inhibition at 0.4 mg/disc [9]: 29 mm
2 | OB(O)c1cccc(F)c1B(O)O [3b] | 22 mm | 200 µg/mL (≈ 1090 µM) | – | 200 µg/mL (≈ 1090 µM) | – | 400 µg/mL (≈ 2180 µM) | 13 mm | 100 µg/mL (≈ 544 µM) | 14 mm | 25 mm | – | 400 µg/mL (≈ 2180 µM) | 16 mm | 400 µg/mL (≈ 2180 µM) | 21 mm | > 400 µg/mL | > 400 µg/mL | > 400 µg/mL | > 400 µg/mL | 200 µg/mL (≈ 1090 µM) | Average FICI with ceftazidime [10]: 0.43; The lowest FICI with ceftazidime [10]: 0.27; viability at 72 h, 12.5 mg/L [8, 12]: 98.1 ± 6.1%; viability at 72 h, 25 mg/L [8, 13]: 91.2 ± 13.5%; viability at 72 h, 50 mg/L [8, 14]: 87.1 ± 8%
3 | OB(O)c1cc(F)ccc1F [7a, 2,5-difluorophenylboronic acid] | – | 25 µg/mL (≈ 158 µM) | 21 mm | 50 µg/mL (≈ 317 µM) | 29 mm | 25 µg/mL (≈ 158 µM) | 18 mm | 50 µg/mL (≈ 317 µM) | – | – | 33 mm | 25 µg/mL (≈ 158 µM) | – | 100 µg/mL (≈ 633 µM) | – | 400 µg/mL (≈ 2530 µM) | 50 µg/mL (≈ 317 µM) | 400 µg/mL (≈ 2530 µM) | 100 µg/mL (≈ 633 µM) | 25 µg/mL (≈ 158 µM) | zone of inhibition at 30 µg/disc ([1]; agent 0.03 mg per disc): 17 mm; zone of inhibition at 0.4 mg/disc (C. tropicalis IBA 171; 0.4 mg per disc, 9 mm disc (fluconazole 0.025 mg, 6 mm disc), - no zone, read-out: Diameter of inhibition zone): 25 mm; zone of inhibition at 30 µg/disc ([2]; agent 0.03 mg per disc): 13 mm; zone of inhibition at 30 µg/disc ([3]; agent 0.03 mg per disc): 19 mm; Average FICI with ceftazidime [10]: 0.17; The lowest FICI with ceftazidime [10]: 0.14; zone of inhibition at 30 µg/disc ([5]; agent 0.03 mg per disc): 15 mm; viability at 72 h, 12.5 mg/L [8]: 83 ± 2.9%; viability at 72 h, 25 mg/L [8]: 79.9 ± 3.7%; viability at 72 h, 50 mg/L [8]: 67.3 ± 3.1%; zone of inhibition at 0.4 mg/disc [9]: 21 mm
